Counter-ions that a name gives are not always drawn. Like-named read-outs stand apart in the source and are kept apart here.
Molecular target: T1, β-catenin/BCL9 PPI (Homo sapiens, UniProt P35222)
T1 construct: Wild-type full-length β-catenin were cloned into a pET-28b vector carrying a C-terminal 6×histidine; made in house; host or cells: Escherichia coli BL21 DE3 (β-catenin); BCL9 peptide chemically synthesized
T1 sequence (P35222 1-781): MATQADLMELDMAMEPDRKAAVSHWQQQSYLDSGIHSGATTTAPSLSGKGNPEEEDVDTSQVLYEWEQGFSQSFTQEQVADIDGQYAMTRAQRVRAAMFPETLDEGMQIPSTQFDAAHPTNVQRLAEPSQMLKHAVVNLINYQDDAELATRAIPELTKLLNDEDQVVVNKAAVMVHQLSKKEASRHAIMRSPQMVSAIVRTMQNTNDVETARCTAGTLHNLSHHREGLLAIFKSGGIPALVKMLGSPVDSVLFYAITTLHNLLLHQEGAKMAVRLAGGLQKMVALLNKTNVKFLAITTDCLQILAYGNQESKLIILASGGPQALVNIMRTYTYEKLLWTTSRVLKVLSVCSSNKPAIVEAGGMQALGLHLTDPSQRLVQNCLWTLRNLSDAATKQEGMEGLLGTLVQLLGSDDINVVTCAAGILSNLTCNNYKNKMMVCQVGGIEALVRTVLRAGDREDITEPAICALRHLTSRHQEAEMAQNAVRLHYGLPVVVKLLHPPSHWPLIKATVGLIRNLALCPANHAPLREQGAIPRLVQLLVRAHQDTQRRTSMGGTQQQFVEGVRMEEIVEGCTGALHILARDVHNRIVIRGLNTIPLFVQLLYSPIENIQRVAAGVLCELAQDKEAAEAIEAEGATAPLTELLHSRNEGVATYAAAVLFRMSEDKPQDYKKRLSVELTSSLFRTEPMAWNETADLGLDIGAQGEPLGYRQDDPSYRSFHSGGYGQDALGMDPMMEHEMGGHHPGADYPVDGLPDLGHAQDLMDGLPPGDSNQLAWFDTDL
Assay: AlphaScreen competitive inhibition assay of the β-catenin/BCL9 PPI
Assay type: binding
Conditions: mean ± SD, triplicate, Ki derived from IC50 (Nikolovska-Coleska method)
Method: AlphaScreen competitive inhibition assays. For the competitive inhibition assays of the β-catenin/BCL9 PPI, the negative control (equivalent to 0% inhibition) refers to 5.0 nM of biotinylated BCL9, 40 nM of His6-tagged β-catenin, and 10 μg/mL of donor and acceptor beads in a final volume of 25 μL assay buffer, but no tested inhibitor present. The positive control (equivalent to 100% inhibition) refers to 5.0 nM of biotinylated BCL9 and 10 μg/mL of donor and acceptor beads in a final volume of 25 μL assay buffer.
For the β-catenin/BCL9 assay, 5 nM of biotinylated BCL9 and 40 nM of His6-tagged β-catenin were incubated in assay buffer at 4° C. for 30 min. Different concentrations of the tested inhibitor were added and incubated in 20 μL assay buffer at 4° C. for another 1 h. All of the above assay plates were covered and gently mixed on an orbital shaker. The donor and acceptor beads were then added to the plates to a final concentration of 10 μg/mL in 25 μL assay buffer. The mixture was incubated for 1 h at 4° C. before detection. The IC50 value was determined by nonlinear least-square analysis of GraphPad Prism 5.0. The Ki values were derived from the IC50 values using a method reported by Nikolovska-Coleska et al (Nikolovska-Coleska, Z.; Wang, R.; Fang, X.; Pan, H.; Tomita, Y.; Li, P.; Roller, P. P.; Krajewski, K.; Saito, N. G.; Stuckey, J. A.; Wang, S. Development and optimization of a binding assay for the XIAP BIR3 domain using fluorescence polarization. Anal. Biochem. 2004, 332, 261-273). The assays were conducted under the conditions required by Nikolovska-Coleska et al.'s equation for determining the Ki values. All of the experiments were performed in triplicate. The results were expressed as mean±standard deviation.

[1] = Example 1 compounds, experiment 3, read-out: Ki (μM ± SD) experiment 3
[2] = Example 1 compounds, experiment 4, read-out: Ki (μM ± SD) experiment 4
[3] = Example 2 compounds, experiment 1, read-out: Ki (μM ± SD) experiment 1
[4] = Example 2 compounds, experiment 2, read-out: Ki (μM ± SD) experiment 2
[5] = Example 1 compounds, experiment 1, read-out: Ki (μM ± SD) experiment 1
[6] = Example 1 compounds, experiment 2, read-out: Ki (μM ± SD) experiment 2

| Ki [1] [µM] | Ki [2] [µM] | Structure (SMILES) | also measured |
| --- | --- | --- | --- |
| 73 | 150 ± 17 | CC(=O)Nc1cc(F)cc(C(=O)N2CCN(C(=O)c3ccc(O[C@H]4CCNC4)c(C4CCCCC4)c3)C(C(=O)N(C)C)C2)c1 (stereo partly drawn) [Compound 18, 4-(3-Acetamido-5-fluorobenzoyl)-1-(3-cyclohexyl-4-(((S)-pyrrolidin-3-yl)oxy)benzoyl)-N,N-dimethylpiperazine-2-carboxamide trifluoroacetate] |  |
| 410 ± 56 | 770 ± 140 | CC(=O)Nc1cc(F)cc(C(=O)N2CCN(C(=O)c3ccc(O[C@H]4CCNC4)c(C4CCCCC4)c3)C(C(=O)NCC3CCCCC3)C2)c1 (stereo partly drawn) [Compound 26, 4-(3-Acetamido-5-fluorobenzoyl)-1-(3-cyclohexyl-4-(((S)-pyrrolidin-3-yl)oxy)benzoyl)-N-(cyclohexylmethyl) piperazine-2-carboxamide trifluoroacetate] |  |
|  |  | O=C(c1ccc(O[C@H]2CCNC2)c(C2CCCCC2)c1)N1CCC(Oc2cc(F)cc(N3CCNCC3=O)c2)CC1 [Compound 2, (S)-1-(3-((1-(3-cyclohexyl-4-(pyrrolidin-3-yloxy)benzoyl)piperidin-4-yl)oxy)-5-fluorophenyl) piperazin-2-one dihydrochloride] | Ki [3]: 496 ± 39.7 µM; Ki [4]: > 90 µM |
|  |  | NCc1cn(-c2cc(F)cc(C(=O)N3CCN(C(=O)c4ccc(O[C@H]5CCNC5)c(C5CCCCC5)c4)CC3)c2)nn1 [Compound 30, (S)-(4-(3-(4-(aminomethyl)-1H-1,2,3-triazol-1-yl)-5-fluorobenzoyl)piperazin-1-yl) (3-cyclohexyl-4-(pyrrolidin-3-yloxy)phenyl) methanone ditrifluoroacetate] | Ki [5]: 110 ± 15 µM; Ki [6]: 560 ± 71 µM |
| 200 ± 20 | 140 ± 17 | CNC(=O)C1CN(C(=O)c2cc(F)cc(NC(C)=O)c2)CCN1C(=O)c1ccc(O[C@H]2CCNC2)c(C2CCCCC2)c1 (stereo partly drawn) [Compound 17, 4-(3-Acetamido-5-fluorobenzoyl)-1-(3-cyclohexyl-4-(((S)-pyrrolidin-3-yl)oxy)benzoyl)-N-methylpiperazine-2-carboxamide trifluoroacetate] |  |
|  |  | NCCC(=O)Nc1cc(F)cc(OC2CCN(C(=O)c3ccc(OC4CCNC4)c(C4CCCCC4)c3)CC2)c1 (stereo not drawn) [Compound 5, 3-amino-N-(3-((1-(3-cyclohexyl-4-(pyrrolidin-3-yloxy)benzoyl)piperidin-4-yl)oxy)-5-fluorophenyl)propanamide dihydrochloride] | Ki [3]: 24.4 ± 3.18 µM; Ki [4]: 25.9 ± 2.45 µM |
| 130 ± 22 | 580 ± 83 | CC(=O)Nc1cc(F)cc(C(=O)N2CCN(C(=O)c3ccc(O[C@H]4CCNC4)c(C4CCCCC4)c3)C(C(=O)Nc3ccccc3)C2)c1 (stereo partly drawn) [Compound 27, 4-(3-Acetamido-5-fluorobenzoyl)-1-(3-cyclohexyl-4-(((S)-pyrrolidin-3-yl)oxy)benzoyl)-N-phenylpiperazine-2-carboxamide trifluoroacetate] |  |
|  |  | NCCC(=O)NCc1cc(F)cc(OC2CCN(C(=O)c3ccc(O[C@H]4CCNC4)c(C4CCCCC4)c3)CC2)c1 [Compound 7, 3-Amino-N-(3-((1-(3-cyclohexyl-4-(pyrrolidin-3-yloxy)benzoyl)piperidin-4-yl)oxy)-5-fluorobenzyl) propanamide dihydrochloride] | Ki [3]: 84.7 ± 11.8 µM; Ki [4]: 125 ± 13.2 µM |
| 660 ± 110 | 600 ± 89 | CC(=O)Nc1cc(F)cc(C(=O)N2CCN(C(=O)c3ccc(O[C@H]4CCNC4)c(C4CCCCC4)c3)C(C(=O)NCc3ccccc3)C2)c1 (stereo partly drawn) [Compound 28, 4-(3-Acetamido-5-fluorobenzoyl)-N-benzyl-1-(3-cyclohexyl-4-(((S)-pyrrolidin-3-yl)oxy)benzoyl) piperazine-2-carboxamide trifluoroacetate] |  |
|  |  | CN(C)Cc1cn(Cc2cc(F)cc(OC3CCN(C(=O)c4ccc(O[C@H]5CCNC5)c(C5CCCCC5)c4)CC3)c2)nn1 [Compound 4, (S)-(3-cyclohexyl-4-(pyrrolidin-3-yloxy)phenyl) (4-(3-((4-((dimethylamino)methyl)-1H-1,2,3-triazol-1-yl)methyl)-5-fluorophenoxy)piperidin-1-yl) methanone dihydrochloride] | Ki [3]: 41.4 ± 4.33 µM |
| 700 ± 130 | 540 ± 71 | CC(=O)Nc1cc(F)cc(C(=O)N2CCN(C(=O)c3ccc(O[C@H]4CCNC4)c(C4CCCCC4)c3)C(C(=O)NCCC(C)C)C2)c1 (stereo partly drawn) [Compound 24, 4-(3-Acetamido-5-fluorobenzoyl)-1-(3-cyclohexyl-4-(((S)-pyrrolidin-3-yl)oxy)benzoyl)-N-isopentylpiperazine-2-carboxamide trifluoroacetate] |  |
| 410 ± 41 | 700 ± 73 | CC(=O)Nc1cc(F)cc(C(=O)N2CCN(C(=O)c3ccc(O[C@H]4CCNC4)c(C4CCCCC4)c3)C(C(=O)NC(C)C)C2)c1 (stereo partly drawn) [Compound 21, 4-(3-Acetamido-5-fluorobenzoyl)-1-(3-cyclohexyl-4-(((S)-pyrrolidin-3-yl)oxy)benzoyl)-N-isopropylpiperazine-2-carboxamide trifluoroacetate] |  |
| 110 ± 16 | 240 ± 27 | CCNC(=O)C1CN(C(=O)c2cc(F)cc(NC(C)=O)c2)CCN1C(=O)c1ccc(O[C@H]2CCNC2)c(C2CCCCC2)c1 (stereo partly drawn) [Compound 19, 4-(3-Acetamido-5-fluorobenzoyl)-1-(3-cyclohexyl-4-(((S)-pyrrolidin-3-yl)oxy)benzoyl)-N-ethylpiperazine-2-carboxamide trifluoroacetate] |  |
|  |  | NCc1cn(-c2cc(F)cc(C(=O)N3CCN(C(=O)c4ccc(O[C@H]5CCNC5)c(C5CCC(C(F)(F)F)CC5)c4)CC3)c2)nn1 (stereo partly drawn) [Compound 31, (S)-(4-(3-(4-(aminomethyl)-1H-1,2,3-triazol-1-yl)-5-fluorobenzoyl)piperazin-1-yl) (4-(pyrrolidin-3-yloxy)-3-(4-(trifluoromethyl)cyclohexyl)phenyl) methanone ditrifluoroacetate] | Ki [5]: > 350 µM; Ki [6]: 610 ± 91 µM |
